The text below walks through data of US10793563B2, “GCN2 inhibitors and uses thereof” (Merck Patent GmbH, priority 2018, dated 2020).

Broadly, the pIC50 is the negative decadic logarithm of the IC50, by convention in mol/L. One may read the pKi as the negative decadic logarithm of the Ki, by convention in mol/L. Lower therefore signals a high Ki.

pIC50, pKi: −log10 of the molar value. A value given as a limit tells only on which side of the number the result lay.

Sequence of GCN2 kinase (Q9P2K8 whole entry): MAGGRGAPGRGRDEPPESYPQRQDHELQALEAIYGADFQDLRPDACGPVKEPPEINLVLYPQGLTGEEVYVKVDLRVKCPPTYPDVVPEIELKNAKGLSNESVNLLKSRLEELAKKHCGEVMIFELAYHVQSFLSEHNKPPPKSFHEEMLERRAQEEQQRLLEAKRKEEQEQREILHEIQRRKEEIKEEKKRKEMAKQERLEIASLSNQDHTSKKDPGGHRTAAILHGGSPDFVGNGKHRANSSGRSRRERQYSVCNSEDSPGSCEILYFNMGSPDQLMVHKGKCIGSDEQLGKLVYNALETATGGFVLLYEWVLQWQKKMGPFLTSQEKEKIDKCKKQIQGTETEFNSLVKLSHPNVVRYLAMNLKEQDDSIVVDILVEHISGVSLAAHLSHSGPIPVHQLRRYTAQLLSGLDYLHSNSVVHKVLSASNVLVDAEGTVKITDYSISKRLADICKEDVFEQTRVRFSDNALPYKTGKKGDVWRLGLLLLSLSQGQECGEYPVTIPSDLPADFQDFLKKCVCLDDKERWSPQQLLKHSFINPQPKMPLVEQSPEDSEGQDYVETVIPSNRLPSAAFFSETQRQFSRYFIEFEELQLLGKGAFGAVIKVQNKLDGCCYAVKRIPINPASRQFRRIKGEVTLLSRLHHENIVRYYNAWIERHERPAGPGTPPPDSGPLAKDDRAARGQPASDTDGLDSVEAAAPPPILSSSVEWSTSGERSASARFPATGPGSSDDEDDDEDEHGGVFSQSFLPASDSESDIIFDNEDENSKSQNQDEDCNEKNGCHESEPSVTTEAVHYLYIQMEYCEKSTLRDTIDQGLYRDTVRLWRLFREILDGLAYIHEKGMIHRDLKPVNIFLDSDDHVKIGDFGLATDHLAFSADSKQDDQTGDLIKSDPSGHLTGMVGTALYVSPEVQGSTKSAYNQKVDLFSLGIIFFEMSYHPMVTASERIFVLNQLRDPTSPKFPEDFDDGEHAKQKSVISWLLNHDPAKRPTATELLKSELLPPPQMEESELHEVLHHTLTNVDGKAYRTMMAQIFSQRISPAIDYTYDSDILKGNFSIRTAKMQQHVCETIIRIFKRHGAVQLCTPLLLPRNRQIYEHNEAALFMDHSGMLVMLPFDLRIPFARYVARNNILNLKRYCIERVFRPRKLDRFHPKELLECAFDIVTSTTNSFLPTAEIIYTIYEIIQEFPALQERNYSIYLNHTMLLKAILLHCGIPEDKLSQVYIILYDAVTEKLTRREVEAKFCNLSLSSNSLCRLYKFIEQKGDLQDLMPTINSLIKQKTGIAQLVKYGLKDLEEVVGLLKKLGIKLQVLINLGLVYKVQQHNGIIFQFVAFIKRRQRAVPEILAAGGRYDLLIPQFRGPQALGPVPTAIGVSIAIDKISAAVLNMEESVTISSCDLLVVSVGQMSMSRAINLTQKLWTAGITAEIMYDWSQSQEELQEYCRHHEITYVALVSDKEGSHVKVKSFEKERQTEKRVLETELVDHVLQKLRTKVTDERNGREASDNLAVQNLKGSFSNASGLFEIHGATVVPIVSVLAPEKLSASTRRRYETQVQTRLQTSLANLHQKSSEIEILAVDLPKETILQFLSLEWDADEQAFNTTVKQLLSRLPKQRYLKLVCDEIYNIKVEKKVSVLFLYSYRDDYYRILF
Sequence of intracellular GCN2 (phosphorylation of the GCN2 substrate eIF2α) (Q9P2K8 whole entry): as above

The target of the first test is GCN2 kinase (Homo sapiens (Human), UniProt Q9P2K8). Kind of test: GCN2 Enzyme Inhibition Assay (Transcreener ADP2 fluorescence polarization). Conditions: 280 μM ATP, 200 μM (RS)7 peptide, 4 nM GCN2, 25° C. It is filed as biochemical. The method in brief:
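At 25 °C, GCN2 kinase (typical final concentration 4 nM) and (RS)7 peptide in Tris-HCl pH 7.5 buffer with MgCl2, NaCl and DTT were preincubated with compound for 10 min, then ATP was added for a 1 h reaction. ADP was read by FP with antibody/Alexa633 tracer. Non-linear tight-binding analysis gave IC50 and apparent Ki.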
In the case of `FC(F)(F)c1ccc2ncc(-c3nccc(N4CCN(C[C@@H]5CC56CCOCC6)[C@@H](c5cn[nH]c5)C4)n3)n2c1` [I-522, 3-(4-((S)-4-(((R)-6-oxaspiro[2.5]octan-1-yl)methyl)-3-(1H-pyrazol-4-yl)piperazin-1-yl)pyrimidin-2-yl)-6-(trifluoromethyl)imidazo[1,2-a]pyridine], the pIC50 is > 8.00.

`O=C(O)C1CC(F)CN(c2ccnc(-c3cnc4ccc(C(F)(F)F)cn34)n2)C1` (stereo not drawn) [I-206, 5-fluoro-1-[2-(6-trifluoromethyl-imidazo[1,2-a]pyridin-3-yl)-pyrimidin-4-yl]-piperidine-3-carboxylic acid] gave a pIC50 of 7.00 to 8.00.

In turn, `N#CC1(C(=O)n2cc([C@@H]3CN(c4ccnc(-c5cnc6ccc(C(F)(F)F)cn56)n4)CCN3)cn2)CC1` [I-433, (R)-1-(4-(4-(2-(6-(trifluoromethyl)imidazo[1,2-a]pyridin-3-yl)pyrimidin-4-yl)piperazin-2-yl)-1H-pyrazole-1-carbonyl)cyclopropane-1-carbonitrile] showed a pIC50 of 7.00 to 8.00.

Take `C[C@@H]1CN(c2ccnc(-c3cnc4ccc(C(F)(F)F)cn34)n2)C[C@H](C)N1C(=O)C1(C)CC1` [I-486, (cis-2,6-dimethyl-4-(2-(6-(trifluoromethyl)imidazo[1,2-a]pyridin-3-yl)pyrimidin-4-yl)piperazin-1-yl)(1-methylcyclopropyl)methanone]: the pIC50 is 6.00 to 7.00.

Molecule `CC1(C(N)=O)CCN(c2ccnc(-c3cnc4ccc(C(F)(F)F)cn34)n2)CC1` [I-188, 4-methyl-1-(2-(6-(trifluoromethyl)imidazo[1,2-a]pyridin-3-yl)pyrimidin-4-yl)piperidine-4-carboxamide] gave a pIC50 of 7.00 to 8.00.

`Cc1nn(C)cc1[C@H]1CN(c2nccc(-c3cnc4ccc(C(F)(F)F)cn34)n2)C[C@H](C)O1` [I-156, (2S,6S)-2-(1,3-dimethyl-1H-pyrazol-4-yl)-6-methyl-4-(4-(6-(trifluoromethyl)imidazo[1,2-a]pyridin-3-yl)pyrimidin-2-yl)morpholine] gave a pIC50 of 6.00 to 7.00.

The molecule `C[C@H]1C[C@@H](N=S(C)(C)=O)CN(c2ccnc(-c3cnc4ccc(S(C)(=O)=O)cn34)n2)C1` [I-312, dimethyl(((3R,5S)-5-methyl-1-(2-(6-(methylsulfonyl)imidazo[1,2-a]pyridin-3-yl)pyrimidin-4-yl)piperidin-3-yl)imino)-λ6-sulfanone] gave a pIC50 of 6.00 to 7.00.

`CC(C)(C)OC(=O)N1CCN(c2ccnc(-c3cnc4ccc(C(F)(F)F)cn34)n2)CC1C(N)=O` (stereo not drawn) [I-207, tert-butyl 2-carbamoyl-4-(2-(6-(trifluoromethyl)imidazo[1,2-a]pyridin-3-yl)pyrimidin-4-yl)piperazine-1-carboxylate] had a pIC50 of 6.00 to 7.00.

`Cc1nn(C)cc1C(=O)N1CCN(c2ccnc(-c3cnc4ccc(C(F)(F)F)cn34)n2)C[C@H]1C` [I-479, (R)-(1,3-dimethyl-1H-pyrazol-4-yl)(2-methyl-4-(2-(6-(trifluoromethyl)imidazo[1,2-a]pyridin-3-yl)pyrimidin-4-yl)piperazin-1-yl)methanone] gave a pIC50 of 6.00 to 7.00.

Staying with this test, now noted: Ki(app); 280 μM ATP, 200 μM (RS)7 peptide, 4 nM GCN2, 25° C.
For the molecule `FC(F)(F)c1ccc2ncc(-c3cccc(N4CCOC(c5cn[nH]c5)C4)n3)n2c1` (stereo not drawn) [I-12, 2-(1H-Pyrazol-4-yl)-4-[6-[6-(trifluoromethyl)imidazo[1,2-a]pyridin-3-yl]-2-pyridyl]morpholine], the pKi is > 8.00.

Molecule `Cc1noc([C@@H]2CN(c3ccnc(-c4cnc5ccc(C(F)(F)F)cn45)n3)C[C@H](C)O2)n1` (stereo in doubt) [I-89, 2-methyl-6-(3-methyl-1,2,4-oxadiazol-5-yl)-4-{2-[6-(trifluoromethyl)imidazo[1,2-a]pyridin-3-yl]pyrimidin-4-yl}morpholine] had a pKi of 7.00 to 8.00.

With `FC(F)(F)c1ccc2ncc(-c3nccc(N4CCCC(c5cn[nH]c5)C4)n3)n2c1` (stereo not drawn) [I-101, 4-[3-(1H-pyrazol-4-yl)piperidin-1-yl]-2-[6-(trifluoromethyl)imidazo[1,2-a]pyridin-3-yl]pyrimidine], the negative logarithm of the Ki (pKi) was > 8.00.

The target in a further test is intracellular GCN2 (phosphorylation of the GCN2 substrate eIF2α) (Homo sapiens (Human), UniProt Q9P2K8). Kind of test: GCN2 Cellular Inhibition Assay (AlphaScreen SureFire P-eIF2α Ser51, borrelidin-treated U2OS cells). It is filed as cell-based. As to conditions: 10 μM borrelidin, 1 h, phosphorylated eIF2α Ser51, read-out: GCN2 Biomarker (IC50). As for the experimental part:
Compounds can be screened for their ability to inhibit intracellular GCN2 using an AlphaScreen assay (Perkin Elmer) to detect phosphorylation of the GCN2 substrate eIF2α in borrelidin-treated cells. U2OS cells are plated at 5,000 cells per well in 384-well white polystyrene plates (Corning 3570) in McCoy's 5A media (GIBCO 26600-023) supplemented with 10% foetal bovine serum (SAFC 12103C), Penicillin/Streptomycin solution diluted 1:100 (Sigma P0781), and 2 mM L-glutamine (Sigma G7513), and allowed to adhere overnight at 37° C. in 5% CO2. Compounds are then added to the cell media from a final concentration of 40 μM in 4-fold serial dilutions. Borrelidin (FluoroChem M01440) is immediately added to the wells to a final concentration of 10 μM and the cells are incubated for 1 h at 37° C. in 5% CO2. After 1 h of treatment with borrelidin, the media is removed, and the cells are lysed with lysis buffer (TGR BioSceinces TGRLB) at ambient temperature.
An AlphaScreen SureFire P-eIF2α (Ser51) assay kit (Perkin Elmer TGREIF2S) was used to measure levels of eIF2α phosphorylated on Serine 51. Anti-phosphorylated eIF2α Ser51 antibody-linked acceptor beads (TGR BioScience 6760617) are added to the cell homogenate (diluted 1:250 into a mixture of activation (TGR BioScience TGRAB) and reaction buffer (TGR BioScience TGREIF2S) prepared immediately before use). The plate is then incubated for 2 h at ambient temperature in the dark. Anti-eIF2α antibody-linked donor beads (TGR BioScience 6760617) were then added (diluted 1:100 in dilution buffer (TGR BioScience TGRDB) prepared immediately before use). The plate is then incubated overnight at ambient temperature in the dark.
Plates are analyzed on an Alpha Technology-compatible PHERAstar FS plate reader (BMG Labtech Version 1.14) to quantify phosphorylated eIF2α Ser51 levels. The percentage inhibition of phosphorylated eIF2α is calculated by comparison to control wells stimulated with borrelidin alone.
For the molecule `FC(F)(F)c1ccc2ncc(-c3cccc(N4CCOC(c5cn[nH]c5)C4)n3)n2c1` (stereo not drawn) [I-12, 2-(1H-Pyrazol-4-yl)-4-[6-[6-(trifluoromethyl)imidazo[1,2-a]pyridin-3-yl]-2-pyridyl]morpholine], the pIC50 was > 6.30.

For the molecule `FC(F)(F)c1ccc2ncc(-c3nccc(N4CCN(C[C@@H]5CC56CCOCC6)[C@@H](c5cn[nH]c5)C4)n3)n2c1` [I-522, 3-(4-((S)-4-(((R)-6-oxaspiro[2.5]octan-1-yl)methyl)-3-(1H-pyrazol-4-yl)piperazin-1-yl)pyrimidin-2-yl)-6-(trifluoromethyl)imidazo[1,2-a]pyridine], the pIC50 is > 6.30.

`FC(F)(F)c1ccc2ncc(-c3nccc(N4CCN(C[C@@H]5CC56CC6)[C@H](c5cn[nH]c5)C4)n3)n2c1` [I-552, 3-(4-((R)-3-(1H-pyrazol-4-yl)-4-(((R)-spiro[2.2]pentan-1-yl)methyl)piperazin-1-yl)pyrimidin-2-yl)-6-(trifluoromethyl)imidazo[1,2-a]pyridine]: the pIC50 is > 6.30.

With `FC(F)(F)c1ccc2ncc(-c3nccc(N4CCOC(c5cn[nH]c5)C4)n3)n2c1` (stereo not drawn) [I-2, 1H-Pyrazol-4-yl-4-[2-[6-(trifluoromethyl)imidazo[1,2-a]pyridin-3-yl]pyrimidin-4-yl]morpholine], the pIC50 was > 6.30.

As to `FC(F)(F)c1ccc2ncc(-c3ccnc(N4CCOC(c5cn[nH]c5)C4)n3)n2c1` (stereo not drawn) [I-10, 2-(1H-pyrazol-4-yl)-4-(4-(6-(trifluoromethyl)imidazo[1,2-a]pyridin-3-yl)pyrimidin-2-yl)morpholine], the negative logarithm of the IC50 (pIC50) was > 6.30.

As for `C[C@@H]1CN(c2nccc(-c3cnc4ccc(C(F)(F)F)cn34)n2)C[C@H](c2cn[nH]c2)O1` (relative stereo) [I-117, cis-2-Methyl-6-(1H-pyrazol-4-yl)-4-{4-[6-(trifluoromethyl)imidazo[1,2-a]pyridin-3-yl]pyrimidin-2-yl}morpholine], the pIC50 was > 6.30.

Take `FC(F)(F)c1ccc2ncc(-c3nccc(N4CCN(C[C@H]5CC56CC6)[C@@H](c5cn[nH]c5)C4)n3)n2c1` [I-553, 3-(4-((S)-3-(1H-pyrazol-4-yl)-4-(((S)-spiro[2.2]pentan-1-yl)methyl)piperazin-1-yl)pyrimidin-2-yl)-6-(trifluoromethyl)imidazo[1,2-a]pyridine]: the pIC50 was > 6.30.

`FC(F)(F)c1ccc2ncc(-c3nccc(N4CCOC(c5cn[nH]c5)C4)n3)n2c1` (stereo not drawn) [I-3, 1H-pyrazol-4-yl-4-[2-[6-(trifluoromethyl)imidazo[1,2-a]pyridin-3-yl]pyrimidin-4-yl]morpholine]: the pIC50 was > 6.30.

In the case of `C[C@@H]1CN(c2nccc(-c3cnc4ccc(C(F)(F)F)cn34)n2)C[C@H](c2cn[nH]c2)O1` [I-118], the pIC50 is > 6.30.

For the molecule `FC(F)(F)c1ccc2ncc(-c3ccnc(N4CCOC(c5cn[nH]c5)C4)n3)n2c1` (stereo not drawn) [I-44, 2-(1H-Pyrazol-4-yl)-4-[4-[6-(trifluoromethyl)imidazo[1,2-a]pyridin-3-yl]pyrimidin-2-yl]morpholine], the pIC50 was > 6.30.

For the molecule `Cc1n[nH]cc1[C@H]1CN(c2ccnc(-c3cnc4ccc(C(F)(F)F)cn34)n2)C[C@@H](C)O1` [I-120], the pIC50 is > 6.30.

As to `Cc1[nH]ncc1[C@H]1CN(c2nccc(-c3cnc4ccc(C(F)(F)F)cn34)n2)C[C@@H](C)O1` (relative stereo) [I-115, cis-2-Methyl-6-(3-methyl-1H-pyrazol-4-yl)-4-{4-[6-(trifluoromethyl)imidazo[1,2-a]pyridin-3-yl]pyrimidin-2-yl}morpholine], the pIC50 was > 6.30.

As to `FC(F)(F)c1ccc2ncc(-c3nccc(N4CCN(C[C@@H]5CC56CC6)[C@@H](c5cn[nH]c5)C4)n3)n2c1` [I-554, 3-(4-((S)-3-(1H-pyrazol-4-yl)-4-(((R)-spiro[2.2]pentan-1-yl)methyl)piperazin-1-yl)pyrimidin-2-yl)-6-(trifluoromethyl)imidazo[1,2-a]pyridine], the pIC50 is > 6.30.

Regarding `C[C@H]1C[C@@H](c2cn[nH]c2)CN(c2nccc(-c3cnc4ccc(C(F)(F)F)cn34)n2)C1` (mixture of isomers) [I-114, 2-[3-methyl-5-(1H-pyrazol-4-yl)piperidin-1-yl]-4-[6-(trifluoromethyl)imidazo[1,2-a]pyridin-3-yl]pyrimidine], the negative-log IC50 (pIC50) is > 6.30.

Regarding `O=S1(=O)CC2(CC(N3CCN(c4ccnc(-c5cnc6ccc(C(F)(F)F)cn56)n4)C[C@@H]3c3cn[nH]c3)C2)C1` [I-556, (S)-6-(2-(1H-pyrazol-4-yl)-4-(2-(6-(trifluoromethyl)imidazo[1,2-a]pyridin-3-yl)pyrimidin-4-yl)piperazin-1-yl)-2-thiaspiro[3.3]heptane 2,2-dioxide], the negative logarithm of the IC50 (pIC50) is 5.30 to 6.30.
